According to patent US20090280167A1, “ENHANCEMENT OF DRUG THERAPY BY MIRNA” (Abraxis BioScience, LLC, priority 2008, published 2009):

Assays:
Format in all cases: cell-based
Her2 [1] = experiment: Confocal imaging of Her2 internalization and degradation; conditions: BT474 cells, concentration of IC50, 24 hours, confocal image
Procedure: 17-AAG treated BT474 cells were examined by the confocal images system. BT474 cells were seeded on the slide and treated at the concentration of IC50 for 24 hours. 17AAG-treated and control BT474 cells were fixed with Methanol, stained with Her2 antibody and analyzed by the confocal image.

Her2 [2] = experiment: Her2 suppression assay (anti-Her2 immunostaining, absorbance at 405 nm); conditions: BT474 cells, 24-hours treatment
Procedure: Ten thousand BT474 cells per well were seeded into a microtiter plate and grown for 48 hours. After this preincubation, the BT474 cells treated with various concentrations of 17-AAG and its analogs for 24-hours. At the end of this incubation the media was removed from each well, each well was washed twice with ice-cold Tris buffer saline (containing 0.1% Tween 20) and the cells were fixed with Methanol (ice-cold) at […] for 10 minutes. The fixed BT474 cells were immunostained with anti-Her2 antibody. The presence of Her2 protein was determined by measurement of the absorbance at 405 nm in the plate reader.

colon cancer line HT29 = experiment: Apo-ONE Homogeneous Caspase-3/7 assay of 17-AAG apoptotic activity; conditions: HT29 cells, 72 hours at 37° C., Caspase-3/7 activity
Source text: The Apo-ONE® Homogeneous Caspase-3/7 Assay (Promega, Madison, Wis.) uses a proprietary lysis/activity buffer, in conjunction with the (Z-DEVD)2-Rhodamine 110 substrate, enables a simple “add-mix-read” format for the detection of caspase-3 and -7 in adherent, suspension, and primary culture cells, or in purified caspase preparations. The assay uses a rhodamine 110-based substrate allows for exquisite sensitivity previously unobtainable with conventional colorimetric or fluorometric assays.
Specifically, 100 μl of Apo-ONE® Caspase-3/7 Reagent was added to each well of a white or black 96-well plate containing 100 μl of blank, control or cells in culture. The plate was covered with a plate sealer for incubating for extended periods (>4 hours). In order to perform this assay in a 384-well plate, a 1:1 volume ratio of Apo-ONE® Caspase-3/7 Reagent to sample was used. The contents of wells were mixed using a plate shaker at 300-500 rpm from 30 seconds and incubated at room temperature for 6 hours. The fluorescence of each well was determined at 485/538 nm (a measure of apoptosis, with the higher ratio indicating more apoptosis).
The apoptotic activity of 17-AAG (17-(Allylamino)-17-demethoxygeldanamycin) was determined in the colon cancer line HT29 using an assay for Caspase-3/7 activity (Apo-ONE kit, Promega). 17-AAG-treated HT29 cells were compared with DMSO-treated control (FIG. 1). […]

HT29 cells [3] = experiment: Apoptotic activity of 17-AAG combined with anticancer agents (Apo-ONE kit); conditions: three days after drug treatment
Procedure: A panel of anticancer chemotherapeutical agents was tested for the enhancement of apoptotic activity with 17-AAG (using the same apoptotic assay system in Example 1), FIG. 4. HT29 cells were treated with various concentration of 17-AGG in the presence or absence of anticancer agents including known HSP70 promoter inducers. Three days after the drug treatment, the apoptotic activity was measured by the Apo-ONE kit (see above). When combined with the anticancer agents, including HSP70 inducers (such as Cisplatin, Etoposide, Doxorubicin, Velcade, Dimethylenastron). […] Some inhibition was also observed for other inducers of HSP70.

HT29 cells [4] = experiment: miRNA concentration dependency of 17-AAG synergy; conditions: 17-AAG 3.125 ug/ml, miRNA 60, 30, 15, 7.5 nM
Procedure: To confirm the activity shown in Example 6, the experiment was repeated with constant amount of 17-AAG (3.125 ug/ml) and increasing amount of miRNAs (60, 30, 15, 7.5 nM) used for transfection. […] There were two distinct classes of miRNAs according to activity (one class with high activity: miR454 (SEQ ID NO:2), miR-520c (SEQ ID NO:4) and miR-520d (SEQ ID NO:5); one class with low activity: miR-145 (SEQ ID NO:1) and miR-519a (SEQ ID NO:3)).

HT29 colon cancer line = experiment: miRNA library screen for enhancement of 17-AAG apoptotic activity (Apo-ONE caspase); conditions: HT29, miRNA transfected 48 hours, then 17-AAG 48 hours, both 1:800 and 1:3200 dilutions of 17-AAG
Procedure: In order to observe an enhancement of activity in 17-AAG, a miRNA library of 470 Pre-miRNA precursors have been transfected (Ambion, siPORT NeoFx transfection agent) in to the HT29 colon cancer line and followed by 17-AAG treatment. Synthetic ds-miRNAs from the miRNA library were transfected into HT29 cells and incubated for 48 hours at 37° C. Various concentrations of 17-AAG were added to miRNA transfected HT29 cells and incubated for another 48 hours. 100 uL of media was aspirated from each well. Apo-One caspase reagent was prepared by diluting the substrate in buffer in a 1:100 concentration. 100 uL of the reagent was added to each well. Plates were incubated at room temperature for 6 hours. The apoptotic activity was measured by the Fluoroskan plate reader. […] Molecules that synergized at both 1:800 and 1:3200 dilutions of 17-AAG were miR-145, miR-454-3p, miR519a, miR-520c, and miR-520d (SEQ ID NOS:1-5), (FIG. 5, dark background, respectively).

HT29 cells [5] = experiment: miRNA enhancement of oxaliplatin or paclitaxel apoptosis (Apo-ONE Caspase-3/7 Assay); conditions: HT29, miRNA 30 nM 48 hours; for Level of apoptosis in oxaliplatin treated cells expressing exogenous miRNA: then 15.6 μg/ml oxaliplatin 48 hours; for Level of apoptosis in paclitaxel treated cells expressing exogenous miRNA: then 7.8 μg/ml paclitaxel 48 hours
Procedure: A transfection medium was made up by diluting siPORT NeoFx (0.3 μl/well) in OPTI-MEM (16.7 ul/well) in the wells of a microtiter plate and this medium was incubated for 10 minutes at room temperature. A pre-miRNA library was diluted to 1 μM and […] of miRNA was added to each well (30 nM). This mixture was incubated at room temperature for another 10 minutes. HT29 cells were then added at 30,000 cells/well and the plates were incubated 48 hours 37° C.
For treatment with candidate therapeutic agents, the media was aspirated from each well and 200 μl/well of 15.6 μg/ml oxaliplatin, 7.8 μg/ml paclitaxel or negative control solution was added. The plates were incubated for 48 hours 37° C. The Apo-ONE® Homogeneous Caspase-3/7 Assay (Promega, Madison, Wis., USA) was performed on the treated cells. The reactions were performed in duplicate.

Molecule | Class of activity in synergy with 17-AAG (HT29 cells [4]) | Synergy with 17-AAG in apoptotic reading (HT29 colon cancer line) | Level of apoptosis in paclitaxel treated cells expressing exogenous miRNA (HT29 cells [5]) | further results
C=CCNC1=C2C[C@@H](C)C[C@H](OC)[C@H](O)[C@@H](C)/C=C(\C)[C@H](OC(N)=O)[C@@H](OC)/C=C\C=C(/C)C(=O)NC(=CC1=O)C2=O [17-AAG, 17-(Allylamino)-17-demethoxygeldanamycin] |  |  |  | Her2 protein expression and localization after treatment (Her2 [1]): eliminated from its cell surface sub-localization to cytoplasm; IC50 (Her2 [2]): ~32 nM; EC50 of apoptosis induction (colon cancer line HT29): 0.07 µg/mL; EC50 (colon cancer line HT29; read-out: EC50 of apoptosis induction): 120 nM
CC(C)C[C@H](NC(=O)[C@H](Cc1ccccc1)NC(=O)c1cnccn1)B(O)O [Velcade] |  |  |  | Effect of the added anticancer agent on apoptotic activity of 17-AAG (HT29 cells [3]): strongly inhibited
miR519a: miRNA AAAGUGCAUCCUUUUAGAGUGUUAC (SEQ ID NO:3) (listed as RNA, chemistry not given here; listed as Homo sapiens) | low activity | synergized |  | 
miR-145: miRNA GUCCAGUUUUCCCAGGAAUCCCUU (SEQ ID NO:1) (listed as RNA, chemistry not given here; listed as Homo sapiens) | low activity | synergized |  | 
miR-454-3p: miRNA UAGUGCAAUAUUGCUUAUAGGGUUU (SEQ ID NO:2) (listed as RNA, chemistry not given here; listed as Homo sapiens) | high activity | synergized |  | Level of apoptosis in oxaliplatin treated cells expressing exogenous miRNA (HT29 cells [5]): highest level of apoptosis
miR-520c: miRNA AAAGUGCUUCCUUUUAGAGGGUU (SEQ ID NO:4) (listed as RNA, chemistry not given here; listed as Homo sapiens) | high activity | synergized |  | Level of apoptosis in oxaliplatin treated cells expressing exogenous miRNA (HT29 cells [5]): highest level of apoptosis
miR-520d: miRNA AAAGUGCUUCUCUUUGGUGGGUU (SEQ ID NO:5) (listed as RNA, chemistry not given here; listed as Homo sapiens) | high activity | synergized |  | Level of apoptosis in oxaliplatin treated cells expressing exogenous miRNA (HT29 cells [5]): highest level of apoptosis
mir 425-3p: miRNA AUCGGGAAUGUCGUGUCCGCC (SEQ ID NO:6) (AUCGGGAAUGUCGUGUCCGCCC; listed as RNA, chemistry not given here; listed as Homo sapiens) |  |  | highest levels of apoptosis | 
mir 495: miRNA AAACAAACAUGGUGCACUUCUUU (SEQ ID NO:7) (listed as RNA, chemistry not given here; listed as Homo sapiens) |  |  | highest levels of apoptosis | 
mir 572: miRNA GUCCGCUCGGCGGUGGCCCA (SEQ ID NO:8) (listed as RNA, chemistry not given here; listed as Homo sapiens) |  |  | highest levels of apoptosis | 
mir 661: miRNA UGCCUGGGUCUCUGGCCUGCGCGU (SEQ ID NO:9) (listed as RNA, chemistry not given here; listed as Homo sapiens) |  |  | highest levels of apoptosis | 
